Measurements: patent US9617264B2, “2,7-diazaspiro[3.5]nonane compounds” (REMYND NV, priority 2014, dated 2017)
pEC50: −log10 of the molar value.

How the values were obtained:
[1] = test system: M17_3SYN cells; assay: Paraquat-induced cytotoxicity (LDH) in α-synuclein over-expressing M17_3SYN neuroblastoma cells; format: cell-based; conditions: Homo sapiens, Neuroblastoma cell, 48 h, 6 mM Paraquat, 2 days, LDH toxicity inhibition, read-out: SYN EC50
Description: A α-synuclein expression plasmid was constructed by subcloning the NcoI/XhoI fragment from 212T-SYN(WT) (Griffioen et al., Biochem Biophys Acta (2006) 1762(3):312-318) containing the cDNA of human wild type α-synuclein correspondingly into a standard mammalian expression vector pcDNA3.1 resulting in plasmid pcDNA3.1-SYNwt. Plasmids pcDNA3.1 and pcDNA3.1-SYNwt were transfected into human neuroblastoma cells (BE-M17; ATCC No. CRL-2267™) using lipofectamine reagent and subsequently, independent clonal cell lines with the plasmids stably integrated into the genome were selected by antibiotic resistance selection (Geneticin (G418)), resulting in cell lines M17.pcDNA3 and M17_3SYN. Overexpression of α-synuclein in the M17_3SYN cell line was confirmed by Western blot analysis.
Due to the high levels of α-synuclein, M17_3SYN cells were sensitive to paraquat, a well-known risk factor Parkinson's disease and of synuclein-dependent neuronal degeneration. Cytotoxicity of cells was measured by quantification of lactate dehydrogenase (LDH) levels. In dead cells, LDH leaked out of the cells into the medium due to a loss of plasma-membrane integrity.
Three days preceding the experiment, primary pre-cultures of M17.pcDNA3 (as possible control) and M17_3SYN cells were prepared, starting from a stock culture, at a density of 20.000-40.000 cells/cm2 in culture medium (Opti-MEM® Reduced Serum Medium with Phenol Red (Invitrogen, Cat. 31985-047) supplemented with 10% FCS, 1 mM sodium pyruvate, 1×NEAA, 500 μg/ml G418 and 0.5× antibiotic/antimycotic (ABAM)). 3 days later these primary pre-cultures were used as a starting point to make secondary pre-cultures at a density of 50.000-100.000 cells/cm^2. At the day of the experiment these secondary precultures were diluted to ˜0.5·10^6 cells/ml in detection medium (Opti-MEM® Reduced-Serum Medium without Phenol Red (Invitrogen, Cat. 11085-021) supplemented with 10% FCS, 1 mM sodium pyruvate, 1×NEAA, 500 μg/ml G418 and 0.5×ABAM) and 60 μL of this suspension was dispensed per well into a 96-well microtiter plate. After 3 hours of incubation at 37° C./5% CO2 an equal volume of detection medium containing a final concentration of 6 mM Paraquat was added and subsequently incubated for 2 days at 37° C./5% CO2. Then LDH activity was determined using the Promega Cytotox 96 Non-Radioactive cytotoxicity assay (Promega, Cat. G1780), according to the manufacturer's instructions. Cytotoxicity was defined as the ratio of LDH relative to the total LDH in the cells and supernatant.
The assay described above using the M17_3SYN cell line allowed screening compounds for their ability to decrease cytotoxicity in PQ-challenged cells. Compounds of the invention were tested for their ability to decrease toxicity at different concentrations, ranging from low non-effective concentrations to high effective concentrations. Afterwards, a dose-dependent inhibition curve was used to calculate the EC50. A compound was considered to be active in this test when it inhibited toxicity by more than 20% relative to untreated M17_3SYN cells at a concentration of […] or lower.

[2] = test system: INS-1E cells; assay: Cytokine-induced apoptosis (caspase-3/7 activation, Caspase-Glo 3/7) in INS-1E rat insulinoma cells; format: cell-based; conditions: cytokine mix (IFN-γ, IL-1, TNF-α), 24 hours, caspase 3/7 activity, read-out: CYT EC50
Description: The INS-1E cell line, a rat insulinoma cell line, has been characterized extensively. INS-1E cells respond to glucose by secreting insulin and, unlike most other immortalized n-cell lines, they do this in a consistent manner over time. The cells are sensitive to hyperglycemia-, free fatty acid (FFA)-, and cytokine-induced stress. Prolonged stress ultimately leads to induction of apoptotic pathways and, if stress is not counter-acted, to apoptosis. Caspase-3 and -7 play a central role downstream where various apoptotic pathways merge. As such, activation (i.e. cleavage) of these caspases forms a relevant primary read-out to evaluate protective activity of compounds against stress-induced apoptosis.
To evaluate the efficacy of different compounds to prevent induction of apoptosis, an in vitro screen was developed in which INS-1E cells were exposed to a cytokine mix (IFN-γ, 5 ng/ml; IL-1, 20 pg/ml; TNF-α, 0.25 ng/ml). The degree of induction of apoptosis was evaluated using a substrate for cleaved caspase-3 and -7, i.e. a proluminescent caspase-3/7 DEVD aminoluciferin substrate with a thermostable luciferase (Caspase-Glo® 3/7 assay; Promega, cat. G8092).
On day 0, INS-1E cells were plated in a white-walled 96-well microplate (Greiner, cat. 655098) at 20,000 cells per well in 100 μl complete medium (RPMI containing 11 mM glucose supplemented with 5% FCS, 100 IU/ml penicillin, 100 μg/ml streptomycin, 10 mM HEPES, 1 mM Sodium Pyruvate and 50 μM 2-Mercapto-ethanol). On day 2, 100 μl medium containing cytokines and compound dissolved in DMSO was added to the cells. Wells without cytokines containing DMSO and wells with cytokines and DMSO were included to evaluate the degree of caspase 3/7 activation by the cytokine mix. After 24 hours exposure to cytokines and/or compound, Caspase-Glo® 3/7 reagent was added to the cells and caspase activity was determined by measuring luminescence.
To evaluate compound efficacy, the “toxicity window” was calculated by subtracting caspase activity of wells without stressor from activity of wells with stressor but without compound. The amount of caspase activity in the latter wells was normalized to 1 and used as reference. Subsequently, caspase activity in the wells with stressor and varying concentrations of compound was calculated relative to the wells without compound. Plotting caspase activity vs the log 10 of the concentration of compound permitted calculation of the EC50 values for the compounds which typically lied between 0.0001 and 10 μM. Compounds with an EC50<10 μM were considered active.

SMILES: COc1ccc(S(=O)(=O)N2CCC3(CC2)CN(C(=O)C2CCCc4ccccc42)C3)cc1 (stereo not drawn) [Cmpd025, (7-((4-Methoxyphenyl)sulfonyl)-2,7-diazaspiro[3.5]nonan-2-yl)(1,2,3,4-tetrahydronaphthalen-1-yl)methanone]
- pEC50 [1]: 7.19
- pEC50 [2]: 6.21

SMILES: COc1ccc(S(=O)(=O)N2CCC3(CC2)CN(C(=O)C(C)c2ccc(Cl)cc2)C3)cc1 (stereo not drawn) [Cmpd026, 2-(4-Chlorophenyl)-1-(7-((4-methoxyphenyl)sulfonyl)-2,7-diazaspiro[3.5]nonan-2-yl)propan-1-one]
- pEC50 [1]: 6.88
- pEC50 [2]: 7.06

SMILES: COc1ccc(S(=O)(=O)N2CCC3(CC2)CN(C(=O)C2(c4ccccc4)CC2)C3)cc1 [Cmpd014, (7-((4-Methoxyphenyl)sulfonyl)-2,7-diazaspiro[3.5]nonan-2-yl)(1-phenylcyclopropyl)methanone]
- pEC50 [1]: 7.25
- pEC50 [2]: 7.47

SMILES: COc1ccc(S(=O)(=O)N2CCC3(CC2)CN(C(=O)C(C)(C)c2cccc(Cl)c2)C3)cc1 [Cmpd030, 2-(3-Chlorophenyl)-1-(7-((4-methoxyphenyl)sulfonyl)-2,7-diazaspiro[3.5]nonan-2-yl)-2-methylpropan-1-one]
- pEC50 [1]: 8.30
- pEC50 [2]: 6.87

SMILES: COc1ccc(S(=O)(=O)N2CCC3(CC2)CN(C(=O)C(C)(C)c2ccccc2OC)C3)cc1 [Cmpd024, 2-(2-Methoxyphenyl)-1-(7-((4-methoxyphenyl)sulfonyl)-2,7-diazaspiro[3.5]nonan-2-yl)-2-methylpropan-1-one]
- pEC50 [1]: 7.09
- pEC50 [2]: 7.20

SMILES: CCC(C(=O)N1CC2(CCN(S(=O)(=O)c3ccc(OC)cc3)CC2)C1)c1ccccc1 (stereo not drawn) [Cmpd011, 1-(7-((4-Methoxyphenyl)sulfonyl)-2,7-diazaspiro[3.5]nonan-2-yl)-2-phenylbutan-1-one]
- pEC50 [1]: 7.18
- pEC50 [2]: 6.61

SMILES: COc1ccc(S(=O)(=O)N2CCC3(CC2)CN(S(=O)(=O)c2ccc(Cl)cc2)C3)cc1 [Cmpd005, 2-((4-Chlorophenyl)sulfonyl)-7-((4-methoxyphenyl)sulfonyl)-2,7-diazaspiro[3.5]nonane]
- pEC50 [1]: 8.19
- pEC50 [2]: 7.70

SMILES: COc1ccc(S(=O)(=O)N2CCC3(CC2)CN(c2nc(CC(F)(F)F)ns2)C3)cc1 [Cmpd031, 5-(7-((4-Methoxyphenyl)sulfonyl)-2,7-diazaspiro[3.5]nonan-2-yl)-3-(2,2,2-trifluoroethyl)-1,2,4-thiadiazole]
- pEC50 [1]: 6.92
- pEC50 [2]: 6.83

SMILES: O=S(=O)(c1cccs1)N1CCC2(CC1)CN(c1nc(Cc3ccc(F)cc3)ns1)C2 [Cmpd092, 3-(4-Fluorobenzyl)-5-(7-(thiophen-2-ylsulfonyl)-2,7-diazaspiro[3.5]nonan-2-yl)-1,2,4-thiadiazole]
- pEC50 [1]: 6.21
- pEC50 [2]: 7.74

SMILES: COc1ccc(C(C)C(=O)N2CC3(CCN(S(=O)(=O)c4ccc(OC)cc4)CC3)C2)cc1 (stereo not drawn) [Cmpd019, 2-(4-Methoxyphenyl)-1-(7-((4-methoxyphenyl)sulfonyl)-2,7-diazaspiro[3.5]nonan-2-yl)propan-1-one]
- pEC50 [1]: 7.02
- pEC50 [2]: 7.27

SMILES: COc1ccc(S(=O)(=O)N2CCC3(CC2)CN(C(=O)CCc2ccc(F)cc2)C3)cc1 [Cmpd015, 3-(4-Fluorophenyl)-1-(7-((4-methoxyphenyl)sulfonyl)-2,7-diazaspiro[3.5]nonan-2-yl)propan-1-one]
- pEC50 [1]: 6.27
- pEC50 [2]: 7.51

SMILES: COc1ccc(S(=O)(=O)N2CCC3(CC2)CN(C(=O)C(C)c2cc(F)cc(F)c2)C3)cc1 (stereo not drawn) [Cmpd029, 2-(3,5-Difluorophenyl)-1-(7-((4-methoxyphenyl)sulfonyl)-2,7-diazaspiro[3.5]nonan-2-yl)propan-1-one]
- pEC50 [1]: 6.72
- pEC50 [2]: 7.24

SMILES: COc1ccc(S(=O)(=O)N2CCC3(CC2)CN(C(=O)C2(c4ccccc4)CCCC2)C3)cc1 [Cmpd028, (7-((4-Methoxyphenyl)sulfonyl)-2,7-diazaspiro[3.5]nonan-2-yl)(1-phenylcyclopentyl)methanone]
- pEC50 [1]: 7.66
- pEC50 [2]: 7.54

SMILES: CS(=O)(=O)c1cccc(S(=O)(=O)N2CCC3(CC2)CN(c2nc(Cc4ccc(F)cc4)ns2)C3)c1 [Cmpd082, 3-(4-Fluorobenzyl)-5-(7-((3-(methylsulfonyl)phenyl)sulfonyl)-2,7-diazaspiro[3.5]nonan-2-yl)-1,2,4-thiadiazole]
- pEC50 [1]: 6.32
- pEC50 [2]: 7.47

SMILES: COc1ccc(S(=O)(=O)N2CCC3(CC2)CN(C(=O)C(C)(O)c2ccccn2)C3)cc1 (stereo not drawn) [Cmpd018, 2-Hydroxy-1-(7-((4-methoxyphenyl)sulfonyl)-2,7-diazaspiro[3.5]nonan-2-yl)-2-(pyridin-2-yl)propan-1-one]
- pEC50 [1]: 6.62
- pEC50 [2]: 7.24

SMILES: CC(=O)Nc1ccc(S(=O)(=O)N2CCC3(CC2)CN(c2nc(Cc4ccc(F)cc4)ns2)C3)cc1 [Cmpd058, N-(4-((2-(3-(4-fluorobenzyl)-1,2,4-thiadiazol-5-yl)-2,7-diazaspiro[3.5]nonan-7-yl)sulfonyl)phenyl)acetamide]
- pEC50 [1]: 6.54
- pEC50 [2]: 7.66

SMILES: COc1ccc(S(=O)(=O)N2CCC3(CC2)CN(C(=O)C(C)(C)c2ccc(Cl)cc2)C3)cc1 [Cmpd027, 2-(4-Chlorophenyl)-1-(7-((4-methoxyphenyl)sulfonyl)-2,7-diazaspiro[3.5]nonan-2-yl)-2-methylpropan-1-one]
- pEC50 [1]: 7.83
- pEC50 [2]: 6.74

SMILES: COc1ccc(S(=O)(=O)N2CCC3(CC2)CN(C(=O)C(C)c2ccccc2OC)C3)cc1 (stereo not drawn) [Cmpd023, 2-(2-Methoxyphenyl)-1-(7-((4-methoxyphenyl)sulfonyl)-2,7-diazaspiro[3.5]nonan-2-yl)propan-1-one]
- pEC50 [1]: 7.41
- pEC50 [2]: 7.72
